# Calls of active or inactive are those of the source.
# Experiments:
# Cytochrome P450 2C9 [1] = molecular target: T1, Cytochrome P450 2C9 (Homo sapiens, UniProt P11712)
# H9c2 = experiment: cells; assay type: functional, cell-based; settings: Rattus norvegicus, H9c2, Myocardium;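 also: confirmatory concentration-response retest of ultra-high-throughput screening hits for modulation of myocardial damage; cell death induced by hydrogen peroxide oxidative stress; compound pretreatment for 60 min then peroxide exposure for 2 h; potency is for protecting the cells against peroxide damage rather than for killing them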
# Cytochrome P450 2D6 = Cytochrome P450 2D6 (Homo sapiens, UniProt P10635);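 also: CYP2D6 member of a cytochrome P450 panel assay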
# Cytochrome P450 1A2 = molecular target: T2, Cytochrome P450 1A2 (Homo sapiens, UniProt P05177);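 also: PubChem cytochrome P450 panel assay, CYP1A2 panel member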
# T2 sequence (P05177 whole entry): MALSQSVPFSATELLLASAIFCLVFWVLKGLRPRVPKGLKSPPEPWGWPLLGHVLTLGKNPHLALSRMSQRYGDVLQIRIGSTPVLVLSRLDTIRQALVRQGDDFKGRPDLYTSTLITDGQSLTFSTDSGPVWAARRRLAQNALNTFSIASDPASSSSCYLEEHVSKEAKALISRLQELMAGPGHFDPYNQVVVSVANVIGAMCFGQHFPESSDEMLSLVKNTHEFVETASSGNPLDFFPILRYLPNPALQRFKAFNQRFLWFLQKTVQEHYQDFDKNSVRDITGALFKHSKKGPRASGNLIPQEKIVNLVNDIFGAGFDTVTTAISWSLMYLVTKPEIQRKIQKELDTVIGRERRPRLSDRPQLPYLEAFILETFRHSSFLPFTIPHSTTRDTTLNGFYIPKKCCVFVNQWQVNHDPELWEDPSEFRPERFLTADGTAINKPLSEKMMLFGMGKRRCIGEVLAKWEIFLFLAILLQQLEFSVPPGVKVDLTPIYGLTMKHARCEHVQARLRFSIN
# Cytochrome P450 2C9 [2] = molecular target: T1, Cytochrome P450 2C9; remark: listed apart in the source
# [3] = inhibitors of intracellular T. cruzi replication, confirmation, NIH3T3 host cells, beta-gal luminescence (AID 2044); assay type: functional, cell-based;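 also: intracellular parasites grown in NIH/3T3 mouse fibroblasts as host cells; luminescent beta-galactosidase reporter signal from transgenic T. cruzi replicating inside host cells; inhibitors lower the luminescence signal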
# [4] = growth suppression of PTEN-null colon cells, dose response, cell-based, HCT116 PTEN knockout (AID 1047); assay type: functional;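 also: HCT116 colon tumor cells with PTEN knocked out; cells exposed to compound for 60 hours before readout; potency for loss of cell viability measured by luminescence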
# [5] = cytotoxicity toward NIH3T3 fibroblasts, dose response, counter-screen, cell-based, ATP luminescence, mouse fibroblasts (AID 2010); assay type: functional;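 also: cells exposed to compound for about 90 hours before reading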
# [6] = growth suppression of beta-catenin-knockout colon cells, dose response, cell-based, HCT116, human colon tumor (AID 1045); assay type: functional;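 also: HCT116 colon tumor cells with beta catenin knocked out; cells exposed to compound for 60 hours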
# [7] = Luminescence Cell-Based Dose Retest to Confirm Inhibitors of Cancer Stem Cells. [Related pubchem assays (depositor defined):AID2717, AID2721]; assay type: functional; settings: Homo sapiens
# Nonstructural protein 1 = Nonstructural protein 1 (Influenza A virus, UniProt Q194T2); assay type: functional, Influenza A virus (A/California/07/2009(H1N1))
# [8] = cytotoxicity in HEK-293T cells, dose response, cytotoxicity control for TCR NF-kB inhibitor project, luminescence, T-cell screen hits (AID 489026); assay type: functional, cell-based;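 also: cells exposed to compound about 14 hours before the viability readout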
# Fatty acid synthase [9] = molecular target: T3, Fatty acid synthase (Homo sapiens, UniProt P49327); experiment: FAS thioesterase domain inhibitors, dose response, biochemical, endpoint fluorescence intensity, uHTS hits (AID 624327); assay type: functional;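 also: fluorescence from hydrolysis of an O-methyl fluorescein acyl ester substrate by the enzyme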
# Fatty acid synthase [10] = molecular target: T3, Fatty acid synthase; experiment: FAS thioesterase domain inhibitors, dose response, biochemical, kinetic fluorescence intensity (AID 624326); assay type: functional;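 also: rate of fluorescence rise from hydrolysis of a fluorogenic O-methyl fluorescein ester substrate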
# INS1 = experiment: beta cell apoptosis inhibitors, cytokine rescue, dose response, luminescence, retest (AID 449756); assay type: functional, cell-based; settings: Rattus norvegicus;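 also: cell death triggered by IL-1 beta plus TNF-alpha plus IFN-gamma mixture; protective hits raise ATP signal compared with cytokine alone wells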
# Caspase-3 = molecular target: T4, Caspase-3 (Homo sapiens, UniProt P42574); assay type: functional;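 also: Dose-response selectivity test against caspase-3 for candidate inhibitors of sentrin-specific proteases (SENPs)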
# T4 sequence (P42574 whole entry): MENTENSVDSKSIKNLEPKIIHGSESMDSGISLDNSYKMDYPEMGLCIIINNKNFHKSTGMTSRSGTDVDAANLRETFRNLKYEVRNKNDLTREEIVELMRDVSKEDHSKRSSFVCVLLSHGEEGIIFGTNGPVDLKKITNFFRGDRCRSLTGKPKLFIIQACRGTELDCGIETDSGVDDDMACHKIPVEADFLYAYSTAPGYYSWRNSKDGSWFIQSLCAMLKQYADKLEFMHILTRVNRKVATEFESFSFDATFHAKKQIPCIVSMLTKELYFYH
# [11] = molecular target: T5, Sentrin-specific protease 7 (Homo sapiens, UniProt Q9BQF6); assay type: functional;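 also: Luminescence-based dose-response confirmation of ultra-high-throughput screening hits, measuring inhibition of SENP7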
# T5 sequence (Q9BQF6 whole entry): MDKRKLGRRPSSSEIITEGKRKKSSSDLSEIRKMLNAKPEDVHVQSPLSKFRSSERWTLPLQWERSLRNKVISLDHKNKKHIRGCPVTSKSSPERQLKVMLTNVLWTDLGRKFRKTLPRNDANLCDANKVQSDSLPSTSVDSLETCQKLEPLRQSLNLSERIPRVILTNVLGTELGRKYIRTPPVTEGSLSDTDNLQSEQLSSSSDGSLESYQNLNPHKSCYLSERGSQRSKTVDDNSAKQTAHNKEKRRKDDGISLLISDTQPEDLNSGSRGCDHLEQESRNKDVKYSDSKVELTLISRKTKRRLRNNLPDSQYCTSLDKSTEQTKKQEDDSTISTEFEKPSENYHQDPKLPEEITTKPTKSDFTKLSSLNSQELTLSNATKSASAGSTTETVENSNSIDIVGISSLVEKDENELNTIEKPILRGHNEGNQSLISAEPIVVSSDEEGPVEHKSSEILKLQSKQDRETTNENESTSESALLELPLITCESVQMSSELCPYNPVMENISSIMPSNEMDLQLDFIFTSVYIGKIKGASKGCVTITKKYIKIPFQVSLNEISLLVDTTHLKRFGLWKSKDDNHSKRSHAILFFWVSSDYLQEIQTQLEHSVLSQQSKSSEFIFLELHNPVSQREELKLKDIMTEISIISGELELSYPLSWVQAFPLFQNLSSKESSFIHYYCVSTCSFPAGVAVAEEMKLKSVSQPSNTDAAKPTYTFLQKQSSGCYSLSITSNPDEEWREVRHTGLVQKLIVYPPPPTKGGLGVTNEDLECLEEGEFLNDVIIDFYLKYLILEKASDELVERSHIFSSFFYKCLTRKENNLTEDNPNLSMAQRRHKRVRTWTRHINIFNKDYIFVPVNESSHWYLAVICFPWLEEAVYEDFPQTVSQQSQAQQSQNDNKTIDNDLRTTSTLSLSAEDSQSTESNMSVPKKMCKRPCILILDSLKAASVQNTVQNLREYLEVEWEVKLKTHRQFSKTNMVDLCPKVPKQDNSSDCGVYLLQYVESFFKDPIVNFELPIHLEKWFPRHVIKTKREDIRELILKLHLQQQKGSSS
# [12] = molecular target: T6, Sentrin-specific protease 6 (Homo sapiens, UniProt Q9GZR1); assay type: functional;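 also: Luminescence-based dose-response confirmatory assay of SENP6 inhibition, following up an ultra-high-throughput screen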
# T6 sequence (Q9GZR1 whole entry): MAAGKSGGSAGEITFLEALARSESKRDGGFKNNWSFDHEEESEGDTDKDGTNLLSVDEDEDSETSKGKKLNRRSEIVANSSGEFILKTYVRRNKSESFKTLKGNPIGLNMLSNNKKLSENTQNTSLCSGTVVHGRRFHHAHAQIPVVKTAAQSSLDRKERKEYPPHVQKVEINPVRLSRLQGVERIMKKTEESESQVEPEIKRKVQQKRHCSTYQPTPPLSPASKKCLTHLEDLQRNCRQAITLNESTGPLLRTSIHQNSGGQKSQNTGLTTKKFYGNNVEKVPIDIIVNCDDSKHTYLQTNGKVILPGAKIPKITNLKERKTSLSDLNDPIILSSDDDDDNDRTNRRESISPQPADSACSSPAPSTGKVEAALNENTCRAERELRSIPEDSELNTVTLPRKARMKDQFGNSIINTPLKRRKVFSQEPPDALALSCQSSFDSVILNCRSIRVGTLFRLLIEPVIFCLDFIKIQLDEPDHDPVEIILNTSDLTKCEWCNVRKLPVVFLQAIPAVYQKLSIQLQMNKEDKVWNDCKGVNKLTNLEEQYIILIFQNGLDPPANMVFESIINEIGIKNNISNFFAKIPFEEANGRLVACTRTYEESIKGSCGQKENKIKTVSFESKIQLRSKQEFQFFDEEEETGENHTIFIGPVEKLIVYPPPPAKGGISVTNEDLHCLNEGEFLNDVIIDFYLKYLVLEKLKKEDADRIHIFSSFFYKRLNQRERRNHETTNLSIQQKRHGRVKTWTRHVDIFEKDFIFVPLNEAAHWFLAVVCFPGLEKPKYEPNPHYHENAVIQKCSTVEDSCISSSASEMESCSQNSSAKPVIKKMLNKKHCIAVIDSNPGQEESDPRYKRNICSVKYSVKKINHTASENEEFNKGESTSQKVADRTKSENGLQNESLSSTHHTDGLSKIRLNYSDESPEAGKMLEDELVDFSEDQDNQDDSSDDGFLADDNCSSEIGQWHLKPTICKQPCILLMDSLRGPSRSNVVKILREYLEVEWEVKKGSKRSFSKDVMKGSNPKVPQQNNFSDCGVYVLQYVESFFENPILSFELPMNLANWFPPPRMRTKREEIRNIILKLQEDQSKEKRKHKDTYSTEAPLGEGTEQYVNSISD
# [13] = molecular target: T7, Sentrin-specific protease 8 (Homo sapiens, UniProt Q96LD8); assay type: functional;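 also: luminescence read-out of SENP8 inhibition, dose-response confirmation following an ultra-high-throughput screen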
# T7 sequence (Q96LD8 whole entry): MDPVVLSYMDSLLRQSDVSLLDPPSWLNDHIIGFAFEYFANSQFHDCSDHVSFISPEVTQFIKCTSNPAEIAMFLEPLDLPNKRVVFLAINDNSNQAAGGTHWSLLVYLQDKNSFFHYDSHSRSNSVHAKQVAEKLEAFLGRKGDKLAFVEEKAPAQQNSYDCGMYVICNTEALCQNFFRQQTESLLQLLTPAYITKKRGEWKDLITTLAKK
# [14] = molecular target: Induced myeloid leukemia cell differentiation protein Mcl-1 (Homo sapiens, UniProt Q07820); assay type: functional
# Cytochrome P450 3A4 = Cytochrome P450 3A4 (Homo sapiens, UniProt P08684);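 also: CYP3A4 tested as one member of a cytochrome P450 panel screen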
# Cytochrome P450 2C19 = Cytochrome P450 2C19 (Homo sapiens, UniProt P33261); experiment: Cytochrome panel assay with activity outcomes. Panel member name: p450-cyp2c19 Compounds with AC50 equal or less than 10 uM are considered active; assay type: functional
# Cytochrome P450 2C19, sequence (P33261 whole entry): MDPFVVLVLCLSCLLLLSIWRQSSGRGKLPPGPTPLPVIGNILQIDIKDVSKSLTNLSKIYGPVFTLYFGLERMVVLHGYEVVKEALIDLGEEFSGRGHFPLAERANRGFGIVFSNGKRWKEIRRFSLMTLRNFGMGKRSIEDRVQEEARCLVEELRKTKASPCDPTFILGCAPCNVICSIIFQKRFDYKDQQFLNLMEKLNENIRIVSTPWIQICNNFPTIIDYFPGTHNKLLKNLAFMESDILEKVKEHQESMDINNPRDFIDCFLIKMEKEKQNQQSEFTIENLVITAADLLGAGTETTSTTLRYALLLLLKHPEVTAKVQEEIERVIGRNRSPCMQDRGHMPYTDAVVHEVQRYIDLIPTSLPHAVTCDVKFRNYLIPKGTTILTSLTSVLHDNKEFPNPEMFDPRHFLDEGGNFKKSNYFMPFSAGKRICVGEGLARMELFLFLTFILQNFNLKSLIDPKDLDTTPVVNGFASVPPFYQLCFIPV
# T1 sequence (P11712 whole entry): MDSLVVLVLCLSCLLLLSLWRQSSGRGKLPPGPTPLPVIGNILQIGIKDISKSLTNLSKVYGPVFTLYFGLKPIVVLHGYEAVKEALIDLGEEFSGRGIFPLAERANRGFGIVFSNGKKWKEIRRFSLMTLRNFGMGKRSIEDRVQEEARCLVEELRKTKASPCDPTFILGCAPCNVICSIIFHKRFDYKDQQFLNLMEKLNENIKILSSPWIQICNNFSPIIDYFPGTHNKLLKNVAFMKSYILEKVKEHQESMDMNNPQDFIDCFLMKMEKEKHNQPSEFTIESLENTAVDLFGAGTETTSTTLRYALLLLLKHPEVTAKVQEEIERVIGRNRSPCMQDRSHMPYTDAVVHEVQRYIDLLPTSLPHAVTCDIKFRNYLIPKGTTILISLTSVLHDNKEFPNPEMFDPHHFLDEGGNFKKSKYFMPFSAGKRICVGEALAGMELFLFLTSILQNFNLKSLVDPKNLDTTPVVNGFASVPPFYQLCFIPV
# Cytochrome P450 2D6, sequence (P10635 whole entry): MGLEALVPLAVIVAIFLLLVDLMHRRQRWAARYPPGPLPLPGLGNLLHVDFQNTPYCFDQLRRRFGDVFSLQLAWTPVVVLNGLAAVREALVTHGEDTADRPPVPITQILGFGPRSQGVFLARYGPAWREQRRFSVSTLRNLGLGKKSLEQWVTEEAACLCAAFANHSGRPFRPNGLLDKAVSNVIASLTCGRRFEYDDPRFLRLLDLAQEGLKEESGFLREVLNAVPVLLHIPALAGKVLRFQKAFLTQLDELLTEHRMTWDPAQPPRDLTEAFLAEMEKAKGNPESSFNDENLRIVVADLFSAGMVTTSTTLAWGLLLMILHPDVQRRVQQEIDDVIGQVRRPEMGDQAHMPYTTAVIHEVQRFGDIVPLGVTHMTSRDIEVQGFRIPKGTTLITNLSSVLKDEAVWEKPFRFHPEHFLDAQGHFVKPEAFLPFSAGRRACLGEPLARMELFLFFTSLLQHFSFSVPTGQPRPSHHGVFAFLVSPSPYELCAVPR
# T3 sequence (P49327 whole entry, the tested form may be a part): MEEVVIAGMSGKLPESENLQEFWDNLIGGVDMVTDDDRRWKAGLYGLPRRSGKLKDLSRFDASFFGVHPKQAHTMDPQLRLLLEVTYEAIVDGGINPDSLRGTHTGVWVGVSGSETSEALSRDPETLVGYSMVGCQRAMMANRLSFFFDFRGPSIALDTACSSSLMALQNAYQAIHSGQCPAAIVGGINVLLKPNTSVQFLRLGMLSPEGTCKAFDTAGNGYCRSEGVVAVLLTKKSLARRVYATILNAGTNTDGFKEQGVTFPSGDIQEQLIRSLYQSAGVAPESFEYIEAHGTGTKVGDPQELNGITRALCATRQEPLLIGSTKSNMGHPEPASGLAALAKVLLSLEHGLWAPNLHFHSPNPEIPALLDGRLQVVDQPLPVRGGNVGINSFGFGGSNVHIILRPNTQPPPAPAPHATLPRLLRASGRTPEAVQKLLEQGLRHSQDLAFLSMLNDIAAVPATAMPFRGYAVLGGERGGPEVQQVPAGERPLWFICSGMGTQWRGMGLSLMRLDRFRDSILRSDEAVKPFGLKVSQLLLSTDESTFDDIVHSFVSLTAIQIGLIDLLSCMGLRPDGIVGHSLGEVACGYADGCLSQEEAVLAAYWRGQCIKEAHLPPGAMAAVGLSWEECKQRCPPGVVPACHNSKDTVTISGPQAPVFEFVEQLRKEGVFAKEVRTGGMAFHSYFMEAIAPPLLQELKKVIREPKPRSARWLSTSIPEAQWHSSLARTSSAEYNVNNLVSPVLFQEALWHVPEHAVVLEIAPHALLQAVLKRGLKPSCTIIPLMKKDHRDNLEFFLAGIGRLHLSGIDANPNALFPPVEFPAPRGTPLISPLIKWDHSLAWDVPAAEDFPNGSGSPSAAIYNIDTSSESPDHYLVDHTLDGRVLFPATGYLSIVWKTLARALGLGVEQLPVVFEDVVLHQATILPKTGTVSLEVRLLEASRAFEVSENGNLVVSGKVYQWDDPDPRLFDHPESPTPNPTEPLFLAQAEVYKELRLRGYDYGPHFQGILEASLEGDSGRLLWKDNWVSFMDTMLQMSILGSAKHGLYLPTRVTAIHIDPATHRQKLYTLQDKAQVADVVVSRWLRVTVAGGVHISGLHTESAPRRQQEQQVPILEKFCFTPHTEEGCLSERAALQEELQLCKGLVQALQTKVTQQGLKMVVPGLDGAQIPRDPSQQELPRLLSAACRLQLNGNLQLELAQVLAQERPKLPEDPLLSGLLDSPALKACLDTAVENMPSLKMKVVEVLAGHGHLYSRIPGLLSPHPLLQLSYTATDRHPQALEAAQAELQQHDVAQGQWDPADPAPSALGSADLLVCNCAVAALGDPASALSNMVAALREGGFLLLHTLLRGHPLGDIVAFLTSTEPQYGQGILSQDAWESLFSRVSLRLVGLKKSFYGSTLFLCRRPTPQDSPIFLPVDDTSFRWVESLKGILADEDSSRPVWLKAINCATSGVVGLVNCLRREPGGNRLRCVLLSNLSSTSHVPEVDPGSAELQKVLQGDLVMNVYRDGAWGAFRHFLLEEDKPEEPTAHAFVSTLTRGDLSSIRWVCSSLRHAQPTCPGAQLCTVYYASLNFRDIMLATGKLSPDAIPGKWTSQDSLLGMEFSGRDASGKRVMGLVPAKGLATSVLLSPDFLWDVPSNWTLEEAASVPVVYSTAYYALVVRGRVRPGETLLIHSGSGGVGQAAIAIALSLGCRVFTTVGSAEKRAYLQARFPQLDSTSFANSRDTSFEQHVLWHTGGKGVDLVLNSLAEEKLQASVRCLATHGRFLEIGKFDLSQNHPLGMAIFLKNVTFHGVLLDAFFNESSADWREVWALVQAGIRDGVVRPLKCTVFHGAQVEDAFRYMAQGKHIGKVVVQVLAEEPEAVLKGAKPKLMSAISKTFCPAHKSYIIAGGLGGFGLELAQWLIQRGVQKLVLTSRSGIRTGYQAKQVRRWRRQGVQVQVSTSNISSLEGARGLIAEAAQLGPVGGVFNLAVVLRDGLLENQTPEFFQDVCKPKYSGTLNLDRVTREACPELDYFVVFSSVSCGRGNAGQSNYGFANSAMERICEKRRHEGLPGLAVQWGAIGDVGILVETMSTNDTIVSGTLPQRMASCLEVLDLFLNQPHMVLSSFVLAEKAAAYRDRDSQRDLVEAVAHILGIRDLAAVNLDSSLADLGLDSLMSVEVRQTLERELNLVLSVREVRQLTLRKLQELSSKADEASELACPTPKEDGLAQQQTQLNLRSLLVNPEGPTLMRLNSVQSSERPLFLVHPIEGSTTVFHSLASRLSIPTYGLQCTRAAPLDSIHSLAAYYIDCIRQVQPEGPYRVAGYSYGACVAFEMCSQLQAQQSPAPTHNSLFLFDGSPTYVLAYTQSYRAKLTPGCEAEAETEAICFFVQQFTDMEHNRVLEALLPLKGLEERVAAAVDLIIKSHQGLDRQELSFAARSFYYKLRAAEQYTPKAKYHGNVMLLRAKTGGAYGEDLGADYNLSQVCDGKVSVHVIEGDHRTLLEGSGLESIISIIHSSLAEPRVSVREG
# Nonstructural protein 1, sequence (Q194T2 whole entry): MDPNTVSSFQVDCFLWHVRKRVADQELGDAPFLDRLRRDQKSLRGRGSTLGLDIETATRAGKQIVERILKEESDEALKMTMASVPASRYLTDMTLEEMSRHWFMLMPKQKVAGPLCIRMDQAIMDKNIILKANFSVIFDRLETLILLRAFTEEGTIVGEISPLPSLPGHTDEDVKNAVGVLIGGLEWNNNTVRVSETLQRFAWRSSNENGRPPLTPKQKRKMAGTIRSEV
# Cytochrome P450 3A4, sequence (P08684 whole entry): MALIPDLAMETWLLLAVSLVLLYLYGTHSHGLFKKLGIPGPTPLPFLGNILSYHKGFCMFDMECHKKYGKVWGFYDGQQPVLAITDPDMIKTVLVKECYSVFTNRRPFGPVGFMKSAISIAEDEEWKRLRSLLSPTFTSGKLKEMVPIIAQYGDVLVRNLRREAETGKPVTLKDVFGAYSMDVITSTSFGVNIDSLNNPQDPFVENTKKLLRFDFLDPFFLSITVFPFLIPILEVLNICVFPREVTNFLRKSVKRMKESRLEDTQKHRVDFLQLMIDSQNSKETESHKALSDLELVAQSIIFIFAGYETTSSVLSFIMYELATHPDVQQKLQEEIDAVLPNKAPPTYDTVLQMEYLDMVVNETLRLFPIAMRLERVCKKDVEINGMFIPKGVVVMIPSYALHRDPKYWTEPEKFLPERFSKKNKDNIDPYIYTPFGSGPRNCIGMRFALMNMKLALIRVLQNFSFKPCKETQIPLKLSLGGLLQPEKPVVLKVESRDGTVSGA
# Induced myeloid leukemia cell differentiation protein Mcl-1, sequence (Q07820 whole entry): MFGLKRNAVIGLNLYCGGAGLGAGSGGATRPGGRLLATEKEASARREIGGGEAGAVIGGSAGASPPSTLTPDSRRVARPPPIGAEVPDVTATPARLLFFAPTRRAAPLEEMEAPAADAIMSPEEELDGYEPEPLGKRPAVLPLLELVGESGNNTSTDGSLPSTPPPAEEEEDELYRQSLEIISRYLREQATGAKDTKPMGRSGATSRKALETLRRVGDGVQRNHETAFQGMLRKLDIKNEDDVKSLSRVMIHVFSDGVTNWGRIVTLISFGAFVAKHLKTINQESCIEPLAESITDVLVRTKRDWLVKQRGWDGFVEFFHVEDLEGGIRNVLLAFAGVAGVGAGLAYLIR
smiles,measurement,setting,value
Cc1c(C(=O)c2ccc3ccccc3c2)c2cccc3c2n1[C@H](CN1CCOCC1)CO3,AC50,Cytochrome P450 2C9 [1],inconclusive
CCCc1cc2c(cc1NC(=O)c1ccc(Br)cc1)OCO2,IC50,H9c2,> 79 µM (inactive)
same,AC50,Cytochrome P450 2D6,0.708 µM (inconclusive)
same,AC50,Cytochrome P450 1A2,1.26 µM (inconclusive)
same,AC50,Cytochrome P450 2C9 [2],2.82 µM (inconclusive)
Cc1cccc(C(=O)Nc2nnc(-c3ccc(C(C)(C)C)cc3)s2)c1,AC50,Cytochrome P450 2C9 [1],inconclusive
Cc1cnc(CNc2ncnc3ccc(-c4ccc(N(C)C)cc4)cc23)cn1,AC50,Cytochrome P450 2D6,25.1 µM (inconclusive)
N#C/C(=C/c1cn(-c2ccccc2)nc1-c1cccc(OCc2ccc(F)cc2)c1)C(=O)NCCCn1ccnc1,EC50,[3],1.46 µM (active)
same,EC50,[4],23.4 µM (active)
same,EC50,[5],> 30 µM (not active)
same,EC50,[6],21.7 µM (active)
same,AC50,[7],2.5 µM (active)
same,IC50,Nonstructural protein 1,81.1 µM (active)
O=C(c1csnn1)N1CCC2(CCCN(c3ccccc3)C2)CC1,AC50,Cytochrome P450 2D6,20 µM (inconclusive)
COc1ccc(C(=O)c2cnc3ccccc3c2-c2ccccc2)cc1,AC50,Cytochrome P450 2D6,31.6 µM (inconclusive)
same,AC50,Cytochrome P450 2C9 [2],7.08 µM (inconclusive)
COc1ccc2c(c1)C(=O)N1[C@H]3c4cc(Br)ccc4OC[C@@H]3[C@H](c3ccccc3)[C@]1(C)C(=O)N2,IC50,[8],> 80 µM (inactive)
same,IC50,Fatty acid synthase [9],17.1 µM (active)
same,IC50,Fatty acid synthase [10],18 µM (active)
CC(C)CO/N=C1/[C@H]2O[C@@H]2[C@@H](O)[C@H]2[C@H]1CCn1c(=O)n(-c3ccccc3)c(=O)n12,AC50,Cytochrome P450 2C9 [1],inconclusive
Cc1cc2cc(CN(Cc3cccs3)S(=O)(=O)c3ccc4c(c3)OCCO4)c(O)nc2cc1C,EC50,[4],33.8 µM (active)
same,EC50,[6],30.2 µM (active)
CN(C)S(=O)(=O)c1ccc(Nc2nc(C3CC3)nc3c2nnn3Cc2ccccc2Cl)cc1,IC50,[8],> 80 µM (inactive)
same,AC50,INS1,4.71 µM (active)
CN(C)c1ccc(NC(=O)CSc2nc(N)c(C(=O)Nc3ccc(N(C)C)cc3)s2)cc1,AC50,Cytochrome P450 2D6,17.8 µM (inconclusive)
Cc1ccc(O)c(NC(=O)c2cc(-c3ccco3)on2)c1,IC50,Caspase-3,21.3 µM (active)
same,IC50,[8],> 80 µM (inactive)
same,IC50,[11],8.57 µM (active)
same,IC50,[12],> 100 µM (inactive)
same,IC50,[13],> 100 µM (inactive)
CCOC(=O)C(C(=O)OCC)C(Nc1cccc(Br)c1)c1ccccc1 (centres undefined),EC50,[4],115 µM (active)
same,EC50,[6],147 µM (active)
O=C(c1cccc(F)c1)N1CCC2(CCCN(c3ncccn3)C2)CC1,AC50,Cytochrome P450 2D6,31.6 µM (inconclusive)
same,AC50,Cytochrome P450 1A2,25.1 µM (inconclusive)
Cc1cc(C)cc(NS(=O)(=O)c2ccc3[nH]cc(C(=O)NCc4ccco4)c(=O)c3c2)c1,EC50,[4],2.68 µM (active)
same,EC50,[6],1.78 µM (active)
same,AC50,[7],0.428 µM (active)
COc1ccc(-n2c(=O)c(-c3cn(C)c4ccccc34)nc3cncnc32)cc1,AC50,Cytochrome P450 2C9 [1],inconclusive
CCOC(=O)NNc1ccc2nonc2c1[N+](=O)[O-],IC50,[14],42.2 µM (active)
same,IC50,Caspase-3,8.38 µM (active)
same,IC50,[11],10.8 µM (active)
same,IC50,[12],4.96 µM (active)
same,IC50,[13],4.85 µM (active)
N#Cc1cccc(-c2cc(NCc3cccs3)ncn2)c1,AC50,Cytochrome P450 2D6,20 µM (inconclusive)
same,AC50,Cytochrome P450 3A4,1.58 µM (inconclusive)
CC(C)OCCCN1C(=O)c2[nH]nc(-c3ccccc3O)c2C1c1cccc(Cl)c1 (centres undefined),EC50,[4],25.2 µM (active)
same,EC50,[6],27.6 µM (active)
Cc1cc(C)n(CCc2nc(-c3ccc(-c4ccccc4)cc3)cs2)n1,IC50,Caspase-3,23.9 µM (active)
same,IC50,[11],4.98 µM (active)
same,IC50,[12],20.5 µM (active)
same,IC50,[13],59.3 µM (active)
Br.CCCCN1C2=NCCCN2c2ccccc21,AC50,Cytochrome P450 2C19,inconclusive
same,AC50,Cytochrome P450 2C9 [1],inconclusive
Oc1nc(S)nc(SCc2c(Cl)c(Cl)c(Cl)c(Cl)c2Cl)n1,AC50,Cytochrome P450 2D6,3.98 µM (inconclusive)

# — ChEMBL document CHEMBL1201862, “PubChem BioAssay data set” (2004)
